US8163509B2, “Biological markers predictive of anti-cancer response to insulin-like growth factor-1 receptor kinase inhibitors” (The Regents of the University of Colorado, A Body Corporate, priority 2008, dated 2012)

Target: T1, IGF1R (Homo sapiens, UniProt P08069)
T1 construct: endogenous in cells; host or cells: HT29 and HCT116 CRC cell lines
Test: Meso Scale Discovery (MSD) assay of phosphorylated IGF1R
Type: cell-based
Details: HT29 and HCT116; 72 h; PQIP 0.4 μmol/L, SN38 0.004 μmol/L, Oxaliplatin 1.0 μmol/L
Method: Detection of IGF1R using Meso Scale Discovery assays (MSD): HT29 and HCT116 CRC cell lines were seeded into 6-well plates, allowed to attach for 24 hours and exposed to PQIP and chemotherapy (SN38, or Oxaliplatin) alone or in combination for 72 h. Following exposure, cells were rinsed with PBS and scraped into RIPA lysis buffer containing protease inhibitors, EDTA, NaF, and sodium orthovanadate. Total protein was quantified using the BioRad Dc Protein Assay (BioRad, Hercules, Calif.). Fifty micrograms of protein in 25 μL was added per well for MSD detection of phosphorylated IGF-1R according to manufacturer's instructions (Meso Scale Discovery, Gaithersburg, Md.).
Cells were exposed to PQIP (0.4 μmol/L) and chemotherapy (SN38 0.004 μmol/L, or Oxaliplatin 1.0 μmol/L) alone or in combination for 72 h. Protein was extracted and analyzed for phospho/total IGF1R levels using a Meso Scale Discovery (MSD; Gaithersburg, Md. 20877) assay.

T1 sequence (P08069 31-1367): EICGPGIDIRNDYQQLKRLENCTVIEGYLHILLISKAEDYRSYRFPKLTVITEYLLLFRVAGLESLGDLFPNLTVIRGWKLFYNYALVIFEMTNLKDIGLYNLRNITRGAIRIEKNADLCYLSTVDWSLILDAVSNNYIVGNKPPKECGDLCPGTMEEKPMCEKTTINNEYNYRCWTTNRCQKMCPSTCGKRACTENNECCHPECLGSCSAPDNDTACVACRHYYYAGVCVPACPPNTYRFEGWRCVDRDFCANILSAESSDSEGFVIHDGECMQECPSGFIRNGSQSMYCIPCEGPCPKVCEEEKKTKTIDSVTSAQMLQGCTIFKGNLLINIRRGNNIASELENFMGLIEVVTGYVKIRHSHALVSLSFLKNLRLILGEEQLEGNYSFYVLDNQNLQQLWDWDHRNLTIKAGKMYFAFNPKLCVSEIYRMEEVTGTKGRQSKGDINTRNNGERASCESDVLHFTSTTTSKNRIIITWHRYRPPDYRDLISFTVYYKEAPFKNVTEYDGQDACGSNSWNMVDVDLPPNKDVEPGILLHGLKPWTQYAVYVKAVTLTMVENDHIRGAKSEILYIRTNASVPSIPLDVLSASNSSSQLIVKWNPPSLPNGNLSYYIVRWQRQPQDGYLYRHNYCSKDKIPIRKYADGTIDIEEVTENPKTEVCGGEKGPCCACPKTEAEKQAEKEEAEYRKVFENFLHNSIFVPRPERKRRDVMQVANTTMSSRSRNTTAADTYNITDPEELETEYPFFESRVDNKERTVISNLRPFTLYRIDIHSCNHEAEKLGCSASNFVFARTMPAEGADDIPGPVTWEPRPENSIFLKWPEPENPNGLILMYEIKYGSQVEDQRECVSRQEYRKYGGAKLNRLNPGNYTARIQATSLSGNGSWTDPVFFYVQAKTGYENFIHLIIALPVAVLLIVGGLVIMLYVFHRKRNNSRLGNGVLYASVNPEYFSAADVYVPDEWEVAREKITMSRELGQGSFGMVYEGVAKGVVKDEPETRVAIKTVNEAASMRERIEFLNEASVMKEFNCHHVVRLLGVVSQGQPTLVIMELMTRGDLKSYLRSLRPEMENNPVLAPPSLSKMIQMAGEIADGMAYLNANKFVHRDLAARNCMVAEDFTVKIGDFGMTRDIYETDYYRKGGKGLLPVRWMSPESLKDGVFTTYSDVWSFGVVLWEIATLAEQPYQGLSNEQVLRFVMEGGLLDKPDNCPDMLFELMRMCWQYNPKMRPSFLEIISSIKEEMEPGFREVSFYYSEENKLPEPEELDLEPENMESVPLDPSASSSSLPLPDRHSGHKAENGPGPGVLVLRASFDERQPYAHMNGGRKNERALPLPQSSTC

Structure (SMILES) | effect on phosphorylated IGF1R, agent alone
O=C1[O][Pt]2([NH][C@@H]3CCCC[C@H]3[NH]2)[O]C1=O [Oxaliplatin, reference compound] | no significant effect
CCc1c2c(nc3ccc(O)cc13)-c1cc3c(c(=O)n1C2)COC(=O)[C@]3(O)CC [SN38, 7-Ethyl-10-hydroxy-camptothecin, reference compound] | no significant effect
